The values below come from patent publication US8604048B2, “Pyridocarbazole type compounds and applications thereof” (Centre National de la Recherche Scientifique, priority 2009, dated 2013).

The test system of one test is MES-SA DX5 cells. As to the kind of experiment: Cell growth test (MTT), MES-SA DX5. The conditions noted are these: Homo sapiens; MES-SA DX5 (multi-drug resistant, P-glycoprotein), MTT test after 48 h; read-out: IC50 (concentration necessary to inhibit 50% of cell growth). Type of test: cell-based. As to the method: (§1) The cell growth tests are carried out in transparent 96-well microplates (Greiner) after having seeded 100 μl/well of a cell solution having 2·10^5 cells/ml to 5·10^5 cells/ml (depending on the cell lines). After incubating for 24 h at 37° C. with 5% CO2, the culture medium is removed and replaced with solutions of the molecule to be tested at various concentrations. The cells are incubated with these molecules for an additional 48 h at 37° C. with 5% CO2. After elimination of the medium, the cells are washed with blank RPMI (Gibco, Invitrogen) then incubated with 3-(4,5-dimethylthiazol-2-yl)-2,5-diphenyltetrazolium bromide or MTT (0.5 mg/ml final concentration) for 4 h at 37° C. with 5% CO2. MTT (Sigma Aldrich) makes it possible to estimate the viability of the cells by measuring the activity of a mitochondrial enzyme. Indeed, in living cells, mitochondrial dehydrogenases are capable of cleaving the tetrazolium ring, thus leading to the formation of formazan crystals that are insoluble in an aqueous medium. These crystals are dissolved with the addition of a solubilizing solution (isopropanol, 10% Triton X100, 0.1 N HCl). After stirring, the absorbance is measured at 570 nm using the FLUOstar OPTIMA microplate reader. […]
(§2) The viability of the cells was evaluated using an MTT test after 48 h of exposure with various concentrations of molecules (from 100 μM to 0.001 μM). […]
In general terms: Tetrazolium dyes change colour on reduction, which living cells bring about.

The next test has as its system 786-O cells. Nature of the test: Cell growth test (MTT), 786-O. Type of test: cell-based. The conditions noted are these: Homo sapiens, 786-0, MTT test after 48 h, read-out: IC50 (concentration necessary to inhibit 50% of cell growth). The protocol: as §1, §2
A further test concerns MES-SA cells. As to the kind of experiment: Cell growth test (MTT), MES-SA. Type of test: cell-based. The conditions noted are these: Homo sapiens, MTT test after 48 h, read-out: IC50 (concentration necessary to inhibit 50% of cell growth). The protocol: as §1, §2
The subject of the next test is HeLa cells. As to the kind of experiment: Cell growth test (MTT), HeLa. The conditions noted are these: Homo sapiens, MTT test after 48 h, read-out: IC50 (concentration necessary to inhibit 50% of cell growth). The format is cell-based. As to the method:
as §1, §2

Another test deals with NCI-H460 cells. Nature of the test: Cell growth test (MTT), NCI-H460. The conditions noted are these: Homo sapiens; NCI-H460, MTT test after 48 h; read-out: IC50 (concentration necessary to inhibit 50% of cell growth). The format is cell-based. The protocol:
as §1, §2

A further test relates to purified tubulin. Nature of the test: In vitro assembly of purified tubulin. The format is biochemical. The conditions noted are these: tubulin 1 mg/ml; Compound 1 at 25, 50, 100 μM. The protocol:
FIG. 5 compares the effects of the Compound 1 of the invention with the effect of paclitaxel (Taxol®) on the assembly of the tubulin purified in vitro. Purified tubulin (1 mg/ml) is incubated in PEM buffer in the presence of GTP (1 mM), MgCl2 (5 mM), DAPI (10 μM) at 37° C. The effect of Compound 1 of the invention at various concentrations (×25 μM, ⊚ 50 μM and Δ 100 μM) is compared to that of paclitaxel (Taxol®) (▪) and of DMSO ( ? );
In order to know whether Compound 1 of the invention exerts its stabilizing effect via a direct action on tubulin, such as paclitaxel does, or by means an effector, its effect on the in vitro assembly of tubulin in microtubules has been analyzed. The first experiments were carried out on purified tubulin (1 mg/ml).

The subject of test [1] is actin network of HeLa cells. As to the kind of experiment: Stability of the actin network to a depolymerization induced by latrunculin B. Type of test: cell-based, Human. The conditions noted are these: HeLa cells, confocal microscope. As to the method:
7. a step of analysis of the effect of the compound to be tested on the actin network, via incubation of HeLa cells with the compound to be tested. […] When the actin network is stabilized, the latrunculin-induced depolymerization of the actin network is limited.
The cells are grown on glass coverslips and incubated as for the tubulin staining. After elimination of the medium, the cells are washed with warm PBS then fixed, by addition of a solution of PBS/3.7% formaldehyde for 30 minutes at 37° C. The cells are washed with PBS then permeabilized with a solution of PBS/0.2% Triton X100 for 15 minutes at room temperature. After another washing with PBS, the cells are incubated with a solution of PBS/1% BSA for 30 minutes at room temperature. The cells are then incubated with phalloidin (0.165 μM final concentration) labelled with Alexa Fluor® 488 (Molecular Probes, Invitrogen) for 20 minutes at room temperature. The cells are washed a final time with PBS then dehydrated with pure ethanol. Finally, the cells are fixed to slides using a Fluorsave™ mounting solution.
8) Test for the Action on the Actin Cytoskeleton: Protocol for Evaluating, in Cells, the Stability of the Actin Network to a Depolymerization Induced by Latrunculin B
3 days before the experiment, glass coverslips are deposited under sterile conditions in 24-well microplates. In each well, HeLa cells (15 000 cells per well) in the exponential growth phase are seeded in 500 μl of RPMI medium.
PBS (phosphate buffered saline, ref. P4417, Sigma), PBS/1% BSA (bovine serum albumin, Ref. A3059, Sigma), aliquots of 15 ml, stored at −20° C.; PBS/0.2% Triton X100 (Ref. T8787, Sigma); PBS/0.01% Tween® 20 (Ref. P9916, Sigma); PBS/0.3% BSA/0.02% NaN3 (Ref. for the NaN3: 6688, Merck), aliquots of 15 ml stored at −20° C. Phalloidin A488, (Ref. A12379, Invitrogen). L4: rabbit anti-detyrosinated-tubulin polyclonal antibody (cf. Fonrose et al., Cancer Res., […], 67:3371-3378). Anti-rabbit antibody coupled to Cyanine 3 (Ref. 111.165.144, Jackson Laboratories). […]

As for `Cc1c2cc[nH]c(=O)c2c(C)c2c1[nH]c1ccc(OCc3ccccc3)cc12` [Compound 3, 9-benzyloxy-5,11-dimethyl-2H,6H-pyrido[4,3-b]carbazol-1-one], the IC50 with MES-SA DX5 cells amounted to 13.9 µM; with 786-O cells, 3.34 µM; in the test with MES-SA cells it was 33.9 µM; in the test on HeLa cells it was 3.05 µM; with NCI-H460 cells it was 1.52 µM.

Turning to `CC(=O)O[C@H]1C(=O)[C@@]2(C)[C@H]([C@H](OC(=O)c3ccccc3)[C@]3(O)C[C@H](OC(=O)[C@H](O)[C@@H](NC(=O)c4ccccc4)c4ccccc4)C(C)=C1C3(C)C)[C@]1(OC(C)=O)CO[C@@H]1C[C@@H]2O` [paclitaxel, reference compound], the “Assembly of purified tubulin in vitro” value in the test on purified tubulin is listed as “can induce the assembly of tubulin”. In test [1], the “Protection of the actin network from depolymerization by latrunculin B” value is “Neither DMSO nor paclitaxel (Taxol®) are able to induce such a protective effect”.
